Measurements taken from US20170137855A1, “RECOMBINANT CELLS AND METHODS FOR NONPHOSPHORYLATIVE METABOLISM” (REGENTS OF THE UNIVERSITY OF MINNESOTA, priority 2015, published 2017).
Values joined by “and” are separate entries in the source; they are usually repeats but may differ in a detail not shown here. Equal entries are not always repeated.

How the values were obtained:
[1] = biological target: T1, Burkholderia xenovorans LB400 2-keto-3-deoxy-D-xylonate dehydratase (DR64_8450) (Paraburkholderia xenovorans, UniProt Q13FD1); assay: B. xenovorans 2-keto-3-deoxy-D-xylonate dehydratase, coupled assay with KGSADH; assay type: biochemical
T1 construct: coupled with D-xylonate dehydratase and KGSADH
T1 sequence (Q13FD1 1-395): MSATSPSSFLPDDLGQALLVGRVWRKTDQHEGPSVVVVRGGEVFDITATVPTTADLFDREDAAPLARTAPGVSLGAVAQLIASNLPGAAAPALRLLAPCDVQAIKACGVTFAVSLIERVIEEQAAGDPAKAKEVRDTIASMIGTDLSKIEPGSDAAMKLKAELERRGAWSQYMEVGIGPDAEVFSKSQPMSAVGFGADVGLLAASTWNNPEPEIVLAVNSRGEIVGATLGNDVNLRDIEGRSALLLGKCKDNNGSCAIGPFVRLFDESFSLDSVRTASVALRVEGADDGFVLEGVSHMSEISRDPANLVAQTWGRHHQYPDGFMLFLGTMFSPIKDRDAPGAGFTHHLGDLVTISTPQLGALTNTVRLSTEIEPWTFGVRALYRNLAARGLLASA
Method: (§1) 2-Keto-3-deoxy-D-xylonate dehydratase (XylX/DR64-8450), 2-keto-3-deoxy-L-arabonate dehydratase (AraD) and 5-keto-4-deoxy-D-glucarate dehydratase (YcbC): Enzyme activities of XylX, DR64-8450, AraD and YcbC were assayed spectrophotometrically in a coupled assay with the corresponding previous dehydratase and 2-ketoglutaric semialdehyde dehydrogenase (KGSADH) as previously described (Watanabe et al., 2006. J Biol. Chem. 281:33521-33536). […] The reaction was initiated by adding an appropriate amount of 2-keto-3-deoxy-D-xylonate dehydratase (XylX/DR64-8450)/2-keto-3-deoxy-L-arabonate dehydratase (AraD)/5-keto-4-deoxy-D-glucarate dehydratase (YcbC), and the increasing absorbance at 340 nm caused by NADH produced in the reaction was monitored.

[2] = biological target: T2, Caulobacter crescentus 2-keto-3-deoxy-D-xylonate dehydratase (XylX) (Caulobacter vibrioides, UniProt A0A0H3C4T2); assay: C. crescentus 2-keto-3-deoxy-D-xylonate dehydratase, coupled assay with KGSADH; assay type: biochemical; settings: substrate from 0-20 mM D-xylonate, 1 mM NAD+, pH 7.5, 25° C.
T2 construct: coupled with XylD and KGSADH; BlpI site removed in gene
T2 sequence (A0A0H3C4T2 1-384): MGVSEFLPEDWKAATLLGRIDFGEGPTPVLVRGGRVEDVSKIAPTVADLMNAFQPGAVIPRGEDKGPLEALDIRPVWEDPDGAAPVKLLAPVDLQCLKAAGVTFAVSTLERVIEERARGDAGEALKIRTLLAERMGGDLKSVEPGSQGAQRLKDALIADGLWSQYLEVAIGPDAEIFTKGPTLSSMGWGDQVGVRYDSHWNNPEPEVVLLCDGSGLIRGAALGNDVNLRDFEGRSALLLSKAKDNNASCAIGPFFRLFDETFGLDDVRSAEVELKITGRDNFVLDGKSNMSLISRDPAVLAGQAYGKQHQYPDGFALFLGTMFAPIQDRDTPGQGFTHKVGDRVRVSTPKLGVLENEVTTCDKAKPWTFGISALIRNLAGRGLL
Method: as §1

[3] = biological target: T3, Lactococcus lactis 2-ketoacid decarboxylase Kivd, wild type (Lactococcus lactis, UniProt Q684J7); assay: Kivd activity inferred from absence of BTO accumulation with L-arabinose as substrate; assay type: cell-based; settings: indicated by no accumulation of BTO using L-arabinose
T3 construct: also expressed from pBDO-5 in E. coli fermentation (A5)
T3 sequence (Q684J7 1-548): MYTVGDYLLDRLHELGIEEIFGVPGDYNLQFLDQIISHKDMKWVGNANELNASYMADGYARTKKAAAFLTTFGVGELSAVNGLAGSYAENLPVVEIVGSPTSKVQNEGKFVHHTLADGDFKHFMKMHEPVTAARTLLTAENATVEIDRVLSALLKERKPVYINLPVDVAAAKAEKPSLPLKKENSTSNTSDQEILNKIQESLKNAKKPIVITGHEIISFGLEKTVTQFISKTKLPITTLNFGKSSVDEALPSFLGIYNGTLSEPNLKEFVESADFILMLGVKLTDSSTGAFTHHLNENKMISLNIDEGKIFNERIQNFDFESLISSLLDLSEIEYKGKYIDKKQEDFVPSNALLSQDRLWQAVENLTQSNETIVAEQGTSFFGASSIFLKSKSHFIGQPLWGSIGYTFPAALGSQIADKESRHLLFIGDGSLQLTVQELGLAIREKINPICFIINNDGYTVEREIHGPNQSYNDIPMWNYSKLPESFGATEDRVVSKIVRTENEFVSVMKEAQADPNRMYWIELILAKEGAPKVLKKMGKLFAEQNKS
Method: 125 ml conical flasks with 0.2 g CaCO3 were autoclaved and dried to perform all small-scale fermentations. […] 200 μl of overnight cultures incubated in 2×YT medium were transferred into the flasks and placed in a shaker at a speed of 250 rpm. After adding 0.1 mM isopropyl-β-D-thiogalactoside (IPTG), the flasks were sealed by parafilm and the fermentation was performed for 48 hours at 30° C. The fermentation products were measured by HPLC.

[4] = biological target: T4, Bacillus subtilis 5-keto-4-deoxy-D-glucarate dehydratase (YcbC) (Bacillus subtilis, UniProt P42235); assay: 5-keto-4-deoxy-D-glucarate dehydratase, coupled assay with KGSADH; assay type: biochemical; settings: substrate from 0-20 mM D-galactarate, pH 7.5, 25° C.
T4 construct: His; made in house; host or cells: E. coli BL21
T4 sequence (P42235 whole entry): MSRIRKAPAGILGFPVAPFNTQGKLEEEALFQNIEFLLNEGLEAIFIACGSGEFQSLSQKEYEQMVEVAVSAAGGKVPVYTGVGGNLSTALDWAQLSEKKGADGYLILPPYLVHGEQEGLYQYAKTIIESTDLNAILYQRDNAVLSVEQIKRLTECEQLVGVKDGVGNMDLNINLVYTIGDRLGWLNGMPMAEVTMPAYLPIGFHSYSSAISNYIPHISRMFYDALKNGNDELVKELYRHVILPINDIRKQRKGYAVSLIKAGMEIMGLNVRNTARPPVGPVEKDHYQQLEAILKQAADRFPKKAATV
Method: as §1

[5] = biological target: T5, Caulobacter crescentus D-xylose dehydrogenase (XylB) (Caulobacter vibrioides, UniProt B8H1Z0); assay: C. crescentus D-xylose dehydrogenase, NADH generation at 340 nm; assay type: biochemical; settings: D-xylose 0 to 10 mM, 1 mM NAD+
T5 construct: His; made in house; host or cells: E. coli BL21
T5 sequence (B8H1Z0 1-248): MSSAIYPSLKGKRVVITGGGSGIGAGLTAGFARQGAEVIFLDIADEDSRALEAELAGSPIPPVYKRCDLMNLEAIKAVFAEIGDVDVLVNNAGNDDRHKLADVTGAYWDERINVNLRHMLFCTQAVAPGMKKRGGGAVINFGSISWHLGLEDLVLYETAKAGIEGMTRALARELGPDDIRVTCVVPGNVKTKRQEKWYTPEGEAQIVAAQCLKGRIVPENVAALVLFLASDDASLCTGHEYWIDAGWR
Method: (§2) A series of enzymatic assays were conducted to estimate the initial activity as a function of starting substrate concentration. […] Kinetic constants (kcat/Km) for following enzymes were calculated with the same method.

[6] = biological target: T6, Burkholderia xenovorans LB400 D-xylose dehydrogenase (DR64_8447) (Paraburkholderia xenovorans, UniProt Q13FC8); assay: B. xenovorans D-xylose dehydrogenase, NADH generation at 340 nm; assay type: biochemical; settings: D-xylose 0 to 10 mM, 1 mM NAD+
T6 construct: gene from LB400 genomic DNA
T6 sequence (Q13FC8 1-268): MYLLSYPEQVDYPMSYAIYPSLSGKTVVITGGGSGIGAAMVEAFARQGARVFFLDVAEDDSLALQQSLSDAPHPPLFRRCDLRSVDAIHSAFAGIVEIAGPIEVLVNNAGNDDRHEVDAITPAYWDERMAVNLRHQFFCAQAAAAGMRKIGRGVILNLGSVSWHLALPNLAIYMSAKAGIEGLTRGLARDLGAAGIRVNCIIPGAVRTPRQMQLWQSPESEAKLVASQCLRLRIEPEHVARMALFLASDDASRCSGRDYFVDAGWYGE
Method: as §2

[7] = 100 mM Tris-HCl, 5 mM MgCl2, pH 7.5, 30° C.

SMILES: O=C(O)C(=O)C[C@H](O)CO [2-keto-3-deoxy-D-xylonate]
- kcat ([1]; coupled assay, substrate from 0-20 mM D-xylonate, 1 mM NAD+, pH 7.5, 25° C.): 4.7 s⁻¹
- kcat compared to XylX of C. crescentus ([1]; higher kcat (4.7 s^−1) vs 0.53 s^−1): 9 fold
- kcat [2]: 0.53 s⁻¹
- kcat/Km [2]: 260 M⁻¹ s⁻¹

SMILES: O=C(O)C(=O)C[C@@H](O)CO [2-keto-3-deoxy-L-arabonate]
- Kivd activity on 2-keto-3-deoxy-L-arabonate [3]: not active

SMILES: O=C(O)C(=O)C[C@H](O)[C@@H](O)C(=O)O [5-keto-4-deoxy-D-glucarate]
- specific constant (kcat/Km), compared within D-galacturonate pathway [4]: lowest specific constant

SMILES: OC1OC[C@@H](O)[C@H](O)[C@H]1O (stereo partly drawn) [D-xylose]
- Km [5, 7]: 850 ± 80 µM
- kcat ([5]; pH 7.5, 30° C.): 12.1 s⁻¹ and 12.1 ± 2.2 s⁻¹
- Km [6, 7]: 1970 ± 120 µM
- kcat ([6]; pH 7.5, 30° C.): 49.9 ± 4.2 s⁻¹
